Paper PMC12005229, “Final results from the phase Ia/Ib study of the novel bromodomain and extra-terminal domain inhibitor, BI 894999, in patients with advanced solid tumors or diffuse large B-cell lymphoma” (ESMO Open, 2025)
Several values for one entry are separate records, joined by “and”; a condition that tells them apart may be missing. Equal entries are not always repeated. Entries after “also recorded” stand apart in the source; their conditions may differ.

How the values were obtained:
patients with DLBCL = assay: phase Ia DLBCL extension: DLTs, MTD, adverse events, exposure; format: in vivo; conditions: for DLT grade ≥3 / DLT / DLT duration / DLT grade / DLT outcome: individual patient events
Excerpt: The extension to the phase Ia dose escalation evaluated schedules B and C for patients with DLBCL.

[1] = tested on: HEXIM1, HIST2H2BF, and CCR2; assay: NanoString gene expression in blood (target engagement); format: in vivo, human
Method: The evaluation of biomarkers to identify patient subgroups with differential prognosis or response to treatment was exploratory, with no formal endpoints defined. Blood samples were assessed using an in-house-designed NanoString panel (NanoString, Seattle, WA) measuring gene expression levels of HEXIM1, HIST2H2BF, and CCR2 over all time points, and postdose expression levels of HEXIM1, HIST2H2BF, and CCR2 on days 14 and 15. HEXIM1 is modulated by BET family proteins and is considered a robust pharmacodynamic marker of BET inhibition,[30] whereas HIST2H2BF and CCR2 are involved in cancer pathways.[31]^,[32]
Total RNA was extracted from whole blood using PAXgene Blood RNA kit (Qiagen, Hilden, Germany) following the manufacturer’s instructions. Total RNA was quantified by direct absorbance measurement at 260 nm using a NanoDrop Spectrophotometer (Thermo Fisher, Waltham, MA). Quality check was carried out by additional measurement of absorbance at 280 nm and calculation of the absorbance ratio OD260/OD280.
mRNA expression was assessed using a custom nCounter® (NanoString, Seattle, WA) codeset generated for the genes of interest plus housekeeping genes. Probes were hybridized to 150 ng of total RNA for 19 h at 65°C and applied to the nCounter® Preparation Station for automated removal of excess probe and immobilization of probe–transcript complexes on a streptavidin-coated cartridge. Data were collected using the nCounter® Digital Analyzer by counting the individual barcodes. Data were analyzed using an in-house analysis pipeline that follows the latest NanoString Technologies standards for the analysis of nCounter® data. The analysis pipeline includes quality checking of the raw data using the NAnostring quality Control dasHbOard (NACHO), a comprehensive method to optimize the quality control of nCounter® data.[33] The housekeeping genes ACTB, GAPDH, HPRT1, MGAT1, and TMED9 were used for normalization.

[2] = review of non-Good Laboratory Practice preclinical assays for cardiac toxicity; conditions: review prompted by elevated troponin T
Excerpt: Some patients experienced elevated troponin T levels, leading to a review of troponin T levels, electrocardiogram data, clinical summaries, and non-Good Laboratory Practice preclinical assays. […] This also corresponded with a lack of cardiotoxicity reported in preclinical studies in animals[17] and this was not a toxicity previously reported with BET inhibitors.[35] It was concluded that the cause of troponin T elevation may be multifactorial, but not clinically significant to preclude further clinical development.[17]

[3] = DLBCL phase Ia extension n = 18
[4] = DLBCL, on-treatment period, schedule B 2.0 mg
[5] = DLBCL, on-treatment period, schedule C 4.0/2.0 mg
[6] = DLBCL, on-treatment period, schedule C 5.0/2.5 mg
[7] = DLBCL, schedule B 1.5 mg, MTD evaluation period
[8] = DLBCL, schedule B 2.0 mg, MTD evaluation period
[9] = DLBCL, schedule B 2.5 mg, MTD evaluation period
[10] = phase Ia DLBCL, MTD evaluation period

Structure (SMILES): CNc1nc(-c2nc3ccc(N4CCN(C)CC4)cc3n2Cc2ccccc2)cn2c(C)nnc12 [BI 894999]
- AEs leading to death (patients with DLBCL; [3]): 1 (5.6) n (%)
- AEs leading to discontinuation of trial drug (patients with DLBCL; [3]): 4 (22.2) n (%)
- AEs leading to dose reduction (patients with DLBCL; [3]): 3 (16.7) n (%)
- Any AE (patients with DLBCL; [3]): 18 (100) n (%)
- DLT in on-treatment period (patients with DLBCL; [3]): 8 (44.4) n (%)
- Treatment-related AEs (patients with DLBCL; [3]): 15 (83.3) n (%)
- Treatment-related serious AEs (patients with DLBCL; [3]): 2 (11.1) n (%)
- Anemia, treatment-related AE, any grade (patients with DLBCL; DLBCL phase Ia n = 18): 5 (27.8) n (%)
- Anemia, treatment-related AE, grade ≥3 (patients with DLBCL; DLBCL phase Ia n = 18): 5 (27.8) n (%)
- Asthenia, treatment-related AE, any grade (patients with DLBCL; DLBCL phase Ia n = 18): 2 (11.1) n (%)
- Asthenia, treatment-related AE, grade ≥3 (patients with DLBCL; DLBCL phase Ia n = 18): 0 n (%)
- Decreased appetite, treatment-related AE, any grade (patients with DLBCL; DLBCL phase Ia n = 18): 4 (22.2) n (%)
- Decreased appetite, treatment-related AE, grade ≥3 (patients with DLBCL; DLBCL phase Ia n = 18): 0 n (%)
- Decreased platelet count, treatment-related AE, any grade (patients with DLBCL; DLBCL phase Ia n = 18): 2 (11.1) n (%)
- Decreased platelet count, treatment-related AE, grade ≥3 (patients with DLBCL; DLBCL phase Ia n = 18): 2 (11.1) n (%)
- Diarrhea, treatment-related AE, any grade (patients with DLBCL; DLBCL phase Ia n = 18): 9 (50.0) n (%)
- Diarrhea, treatment-related AE, grade ≥3 (patients with DLBCL; DLBCL phase Ia n = 18): 0 n (%)
- Dysgeusia, treatment-related AE, any grade (patients with DLBCL; DLBCL phase Ia n = 18): 2 (11.1) n (%)
- Dysgeusia, treatment-related AE, grade ≥3 (patients with DLBCL; DLBCL phase Ia n = 18): 0 n (%)
- Epistaxis, treatment-related AE, any grade (patients with DLBCL; DLBCL phase Ia n = 18): 2 (11.1) n (%)
- Epistaxis, treatment-related AE, grade ≥3 (patients with DLBCL; DLBCL phase Ia n = 18): 0 n (%)
- Fatigue, treatment-related AE, any grade (patients with DLBCL; DLBCL phase Ia n = 18): 4 (22.2) n (%)
- Fatigue, treatment-related AE, grade ≥3 (patients with DLBCL; DLBCL phase Ia n = 18): 0 n (%)
- Hematoma, treatment-related AE, any grade (patients with DLBCL; DLBCL phase Ia n = 18): 2 (11.1) n (%)
- Hematoma, treatment-related AE, grade ≥3 (patients with DLBCL; DLBCL phase Ia n = 18): 0 n (%)
- Muscle spasms, treatment-related AE, any grade (patients with DLBCL; DLBCL phase Ia n = 18): 2 (11.1) n (%)
- Muscle spasms, treatment-related AE, grade ≥3 (patients with DLBCL; DLBCL phase Ia n = 18): 0 n (%)
- Nausea, treatment-related AE, any grade (patients with DLBCL; DLBCL phase Ia n = 18): 5 (27.8) n (%)
- Nausea, treatment-related AE, grade ≥3 (patients with DLBCL; DLBCL phase Ia n = 18): 0 n (%)
- Neutropenia, treatment-related AE, any grade (patients with DLBCL; DLBCL phase Ia n = 18): 4 (22.2) n (%)
- Neutropenia, treatment-related AE, grade ≥3 (patients with DLBCL; DLBCL phase Ia n = 18): 3 (16.7) n (%)
- Thrombocytopenia, treatment-related AE, any grade (patients with DLBCL; DLBCL phase Ia n = 18): 11 (61.1) n (%)
- Thrombocytopenia, treatment-related AE, grade ≥3 (patients with DLBCL; DLBCL phase Ia n = 18): 8 (44.4) n (%)
- Troponin increased, treatment-related AE, any grade (patients with DLBCL; DLBCL phase Ia n = 18): 2 (11.1) n (%)
- Troponin increased, treatment-related AE, grade ≥3 (patients with DLBCL; DLBCL phase Ia n = 18): 1 (5.6) n (%)
- DLT grade ≥3 (patients with DLBCL; DLBCL, on-treatment period, schedule B 1.5 mg): Increased troponin
- DLT duration, melena (patients with DLBCL; [4]): 7 days
- DLT grade, melena (patients with DLBCL; [4]): 3
- DLT grade ≥3 (patients with DLBCL; [4]): Thrombocytopenia; also recorded: Melena
- DLT grade ≥3 (patients with DLBCL; DLBCL, on-treatment period, schedule B 2.5 mg): Thrombocytopenia; also recorded: Sepsis; also recorded: Febrile neutropenia
- DLT grade, decreased platelet count (patients with DLBCL; [5]): 4
- DLT grade ≥3 (patients with DLBCL; [5]): Decreased platelet
- DLT duration, thrombocytopenia (patients with DLBCL; [6]): 8 days
- DLT grade, neutropenia (patients with DLBCL; [6]): 4
- DLT grade, thrombocytopenia (patients with DLBCL; [6]): 4
- DLT grade ≥3 (patients with DLBCL; [6]): Neutropenia; also recorded: Thrombocytopenia
- DLT (patients with DLBCL; [7]): Increased troponin
- DLT duration (patients with DLBCL; [7]): 5 days
- DLT grade (patients with DLBCL; [7]): 3
- DLT outcome (patients with DLBCL; [7]): Recovered
- DLT (patients with DLBCL; [8]): Thrombocytopenia
- DLT duration (patients with DLBCL; [8]): 11 days
- DLT grade (patients with DLBCL; [8]): 4
- DLT outcome (patients with DLBCL; [8]): Not recovered
- DLT (patients with DLBCL; [9]): Thrombocytopenia; also recorded: Sepsis; also recorded: Febrile neutropenia
- DLT duration (patients with DLBCL; [9]): 5 days and 6 days and 7 days and 2 days
- DLT grade (patients with DLBCL; [9]): 4 and 3
- DLT outcome (patients with DLBCL; [9]): Not recovered; also recorded: Recovered
- maximum tolerated dose (MTD) (patients with DLBCL; DLBCL, schedule B (days 1-14/21)): 1.5 mg
- maximum tolerated dose (MTD) (patients with DLBCL; DLBCL, schedule C): not declared
- anemia, grade ≥3 treatment-related AE (patients with DLBCL; phase Ia DLBCL): 27.8%
- anemia, treatment-related AE of any grade (patients with DLBCL; phase Ia DLBCL): 27.8%
- decreased platelet count, grade ≥3 treatment-related AE (patients with DLBCL; phase Ia DLBCL): 11.1%
- decreased platelet count, treatment-related AE of any grade (patients with DLBCL; phase Ia DLBCL): 11.1%
- diarrhea, treatment-related AE of any grade (patients with DLBCL; phase Ia DLBCL): 50.0%
- discontinuation because of DLT (patients with DLBCL; phase Ia DLBCL): 11.1%
- discontinuation because of other AEs (patients with DLBCL; phase Ia DLBCL): 5.6%
- discontinuation because of progressive disease (patients with DLBCL; phase Ia DLBCL): 83.3%
- dose discontinuations due to AEs (patients with DLBCL; phase Ia DLBCL): 22.2%
- dose reductions due to AEs (patients with DLBCL; phase Ia DLBCL): 16.7%
- fatigue, treatment-related AE of any grade (patients with DLBCL; phase Ia DLBCL): 22.2%
- increased troponin, treatment-related AE of any grade (patients with DLBCL; phase Ia DLBCL): 11.1%
- lymph node pain leading to dose discontinuation (patients with DLBCL; phase Ia DLBCL): 5.6%
- median time to first dose reduction (patients with DLBCL; phase Ia DLBCL): 36.0 days
- nausea, treatment-related AE of any grade (patients with DLBCL; phase Ia DLBCL): 27.8%
- neutropenia leading to dose discontinuation (patients with DLBCL; phase Ia DLBCL): 5.6%
- neutropenia, grade ≥3 treatment-related AE (patients with DLBCL; phase Ia DLBCL): 16.7%
- neutropenia, treatment-related AE of any grade (patients with DLBCL; phase Ia DLBCL): 22.2%
- patients who underwent dose reductions (patients with DLBCL; phase Ia DLBCL): 16.7%
- patients with AEs of any grade (patients with DLBCL; phase Ia DLBCL): 100%
- patients with treatment-related AEs (patients with DLBCL; phase Ia DLBCL): 83.3%
- thrombocytopenia leading to dose discontinuation (patients with DLBCL; phase Ia DLBCL): 11.1%
- thrombocytopenia, grade ≥3 treatment-related AE (patients with DLBCL; phase Ia DLBCL): 44.4%
- thrombocytopenia, treatment-related AE of any grade (patients with DLBCL; phase Ia DLBCL): 61.1%
- DLT grade 3 febrile neutropenia (patients with DLBCL; [10]): 7.7%
- DLT grade 3 increased troponin (patients with DLBCL; [10]): 7.7%
- DLT grade 4 sepsis (patients with DLBCL; [10]): 7.7%
- DLT grade 4 thrombocytopenia (patients with DLBCL; [10]): 23.1%
- assessable patients with DLTs (patients with DLBCL; [10]): 4/17
- total patients with DLTs during the on-treatment period (patients with DLBCL; phase Ia DLBCL, schedule B): 5 n
- patients with DLTs (patients with DLBCL; phase Ia DLBCL, schedule B 1.5 mg, MTD evaluation period): 1 n
- patients with DLTs (patients with DLBCL; phase Ia DLBCL, schedule B 2.0 mg, MTD evaluation period): 1 n
- patients with DLTs (patients with DLBCL; phase Ia DLBCL, schedule B 2.5 mg, MTD evaluation period): 2 n
- patients with DLTs (patients with DLBCL; phase Ia DLBCL, schedule B (n = 13), MTD evaluation period): 30.8%
- total patients with DLTs during the on-treatment period (patients with DLBCL; phase Ia DLBCL, schedule C): 3 n
- patients with DLTs (patients with DLBCL; phase Ia DLBCL, schedule C, MTD period): No patients receiving schedule C experienced DLTs; also recorded: a No DLBCL patients on schedule C experienced DLTs on BI 894999
- target engagement (≥2 of 3 genes with twofold or greater change) ([1]; phase Ia DLBCL patient blood samples): target engagement was seen at all dose levels
- HEXIM1 induction, median fold change from baseline ([1]; phase Ib, NUT carcinoma, blood): 1.93
- target engagement (≥2 of 3 genes with twofold or greater change) ([1]; phase Ib, blood samples from the various solid tumor entities): all showed target engagement
- preclinical evidence of cardiac toxicity [2]: no preclinical evidence of potential cardiac toxicity
